Test results: ChEMBL document CHEMBL1153550, “In vitro study of Candida tropicalis isolates exhibiting paradoxical growth in the presence of high concentrations of caspofungin” (2007)
Converted amounts (≈) assume the structure as drawn.

What was measured:
Assay type in all cases: functional
Candida tropicalis [1] = assay: Antifungal activity against Candida tropicalis isolate 15 in RPMI 1640 medium by broth dilution susceptibility test
Candida tropicalis [2] = assay: Antifungal activity against Candida tropicalis isolate 13 in RPMI 1640 medium by broth dilution susceptibility test
Candida tropicalis [3] = assay: Antifungal activity against Candida tropicalis isolate 6 in RPMI 1640 medium by broth dilution susceptibility test
Candida tropicalis [4] = assay: Antifungal activity against Candida tropicalis isolate 4 in RPMI 1640 medium by broth dilution susceptibility test
Candida tropicalis [5] = assay: Antifungal activity against Candida tropicalis isolate 8 in RPMI 1640 medium by broth dilution susceptibility test
Candida tropicalis [6] = assay: Antifungal activity against Candida tropicalis ATCC 750 in RPMI 1640 medium by broth dilution susceptibility test
Candida tropicalis [7] = assay: Antifungal activity against Candida tropicalis isolate 7 in RPMI 1640 medium by broth dilution susceptibility test
Candida tropicalis [8] = assay: Antifungal activity against Candida tropicalis isolate 5 in RPMI 1640 medium by broth dilution susceptibility test

**Q.** `Nc1nc(=O)[nH]cc1F` [FLUCYTOSINE] was tested. Which MIC (Candida tropicalis [1]) did it give?
**A.** 0.12 µg/mL (≈ 0.93 µM)

**Q.** And the MIC (Candida tropicalis [2])?
**A.** 0.12 µg/mL (≈ 0.93 µM)

**Q.** What about the MIC (Candida tropicalis [3]) of the same compound?
**A.** 0.12 µg/mL (≈ 0.93 µM)

**Q.** What about the MIC (Candida tropicalis [4]) of the same compound?
**A.** 0.12 µg/mL (≈ 0.93 µM)

**Q.** What about the MIC (Candida tropicalis [5]) of the same compound?
**A.** 0.12 µg/mL (≈ 0.93 µM)

**Q.** And the MIC (Candida tropicalis [6])?
**A.** 0.12 µg/mL (≈ 0.93 µM)

**Q.** What about the MIC (Candida tropicalis [7]) of the same compound?
**A.** 0.12 µg/mL (≈ 0.93 µM)

**Q.** And the MIC (Candida tropicalis [8])?
**A.** 0.12 µg/mL (≈ 0.93 µM)

**Q.** Which results are given for `OC(Cn1cncn1)(Cn1cncn1)c1ccc(F)cc1F` [FLUCONAZOLE]?
**A.** MIC (Candida tropicalis [1]): 0.25 µg/mL (≈ 0.816 µM); MIC (Candida tropicalis [2]): 0.5 µg/mL (≈ 1.63 µM); MIC (Candida tropicalis [3]): 0.25 µg/mL (≈ 0.816 µM); MIC (Candida tropicalis [4]): 0.5 µg/mL (≈ 1.63 µM); MIC (Candida tropicalis [5]): 0.5 µg/mL (≈ 1.63 µM); MIC (Candida tropicalis [6]): 1 µg/mL (≈ 3.27 µM); MIC (Candida tropicalis [7]): 0.25 µg/mL (≈ 0.816 µM); MIC (Candida tropicalis [8]): 0.25 µg/mL (≈ 0.816 µM)

**Q.** With `C[C@@H]1[C@H](O)[C@@H](C)/C=C/C=C/C=C/C=C/C=C/C=C/C=C/[C@H](O[C@@H]2O[C@H](C)[C@@H](O)[C@H](N)[C@@H]2O)C[C@@H]2O[C@](O)(C[C@@H](O)C[C@@H](O)[C@H](O)CC[C@@H](O)C[C@@H](O)CC(=O)O[C@H]1C)C[C@H](O)[C@H]2C(=O)O` [AMPHOTERICIN B] as the compound, how does the MIC (Candida tropicalis [1]) read?
**A.** 2 µg/mL (≈ 2.16 µM)

**Q.** What about the MIC (Candida tropicalis [2]) of the same compound?
**A.** 2 µg/mL (≈ 2.16 µM)

**Q.** What about the MIC (Candida tropicalis [3]) of the same compound?
**A.** 2 µg/mL (≈ 2.16 µM)

**Q.** What about the MIC (Candida tropicalis [4]) of the same compound?
**A.** 2 µg/mL (≈ 2.16 µM)

**Q.** What about the MIC (Candida tropicalis [5]) of the same compound?
**A.** 2 µg/mL (≈ 2.16 µM)

**Q.** What about the MIC (Candida tropicalis [6]) of the same compound?
**A.** 1 µg/mL (≈ 1.08 µM)

**Q.** And the MIC (Candida tropicalis [7])?
**A.** 2 µg/mL (≈ 2.16 µM)

**Q.** What about the MIC (Candida tropicalis [8]) of the same compound?
**A.** 2 µg/mL (≈ 2.16 µM)
